Tests used:
MC3T3-E1 cells [1] = assay: Calcium content (mineralization, ICP-AES) on coated titanium implants; format: cell-based, mouse; details: Ti implants; 28 days; UV-treated compared to UV-untreated cells and control group
Protocol: To test the effect of the surface modification, 96-well plates were used. Ti disks were placed into the wells and treatments and UV-activation were performed over there. Cells grown onto untreated polystyrene tissue culture plastic (TCP) were added as a control for all the experiments. Cells were seeded at a density of 30,000 cells/cm^2 and they were maintained in α-MEM supplemented with 10% FCS and antibiotics. Culture media was collected after 48 hours, to test cytotoxicity and the production of the hydroxylated form of vitamin D, 25-D3. Cells were harvested after two days of culture using Trizol reagent (Roche Diagnostics, Mannheim, Germany), to analyze gene expression of several osteoblast differentiation markers and enzymes involved in vitamin D synthesis using real-time RT-PCR. […]
[…] Cell lysates were put into freeze/thaw cycles (liquid nitrogen and 37° C. water bath) to improve protein recovery. […] ALP activity was calculated by measuring the cleavage of p-Nitrophenyl Phosphate (pNPP) (Sigma, St. Louis, Mo., USA) in a soluble yellow end product which absorbs at 405 nm. […] At this point, absorbance was read at 405 nm.
To determine calcium content samples were analyzed by inductively coupled plasma atomic emission spectrometry (Optima 5300 DV, PerkinElmer, Massachussetts, USA). […]

MC3T3-E1 cells [2] = assay: Real-time RT-PCR of vitamin D hydroxylation/degradation enzymes (CYP27A1, CYP27B1, CYP24A1), plastic wells; format: cell-based, mouse; details: TCP, 2 days
Protocol: To test the effect of the different treatments onto the plastic wells, 96-well plates made of polystyrene were used and the treatments with 7-DHC performed directly onto them. Cells grown onto untreated TCP were added as a control for all the experiments. Cells were seeded at a density of 30,000 cells/cm^2 and they were maintained in α-MEM supplemented with 10% FCS and antibiotics. Culture media was collected after 48 hours, to test cytotoxicity and the production of the hydroxylated forms of vitamin D. Cells were harvested after 2 days of culture using Trizol reagent (Roche Diagnostics, Mannheim, Germany), to analyse early gene expression response of several osteoblast differentiation markers and enzymes involved in vitamin D synthesis using real-time RT-PCR.
RNA was isolated from cells using a monophasic solution of phenol and guanidine thiocyanate (Trizol, Roche Diagnostics, Mannheim, Germany) according to the manufacturer's protocol. RNA was quantified at 260 nm using a Nanodrop spectrophotometer (NanoDrop Technologies, Wilmington, Del., USA).
Total RNA previously isolated was reverse-transcribed to cDNA using High Capacity RNA to cDNA kit (Applied Biosystems, Foster City, Calif.) according to the protocol of the supplier. The same amount of total RNA from each sample was converted into cDNA. Each cDNA was diluted ¼ and aliquots were stored at −20° C. until the PCR reactions were carried out.
Real-time RT-PCR was performed for two reference genes: 18S ribosomal RNA (18S rRNA), glyceraldehyde-3-phosphate dehydrogenase (GAPDH), and 11 target genes alkaline phospathase (ALP), Interleukin 6 (IL-6), Collagen (Coll-1), Osteocalcin (OC), Bone Morphogenetic Protein 2 (BMP-2), Osterix (Osx), Receptor activator of nuclear factor kappa-B ligand (RANKL), Osteoprogesterin (OPG) and genes involved in vitamin D synthesis such as Vitamin D3 25-hydroxylase (CYP27A1), 25 hydroxyvitamin D3-1-alpha hydroxylase (CYP27B1) and 1,25-dihydroxyvitamin D3 24-hydroxylase (CYP24A1).
Real-time PCR were performed in the Lightcycler 480® (Roche Diagnostics, Germany). […] After each cycle, fluorescence was measured at 72° C. […]
To allow relative quantification after PCR, real-time efficiencies were calculated from the given slopes in the LightCycler 480 software (Roche Diagnostics, Mannheim, Germany) using serial dilutions. Relative quantification after PCR was calculated by normalizing target gene concentration in each sample by the concentration mean of the two reference genes in given sample using the “advanced relative quantification method” provided by the LightCycler 480 analysis software.

Structure (SMILES): CC(C)CCC[C@@H](C)[C@H]1CC[C@H]2C3=CC=C4C[C@@H](O)CC[C@]4(C)[C@H]3CC[C@]12C [7-DHC, 7-dehydrocholesterol]
- Calcium content (MC3T3-E1 cells [1]): significant increase
- CYP27B1 mRNA levels (MC3T3-E1 cells [2]; UV-irradiated, higher concentrated samples, significance was not reached): increase in mRNA levels
- CYP27A1 mRNA levels (MC3T3-E1 cells [2]; UV-treated doses above the lowest, vs UV-untreated corresponding doses): dose-response increase
